According to ChEMBL document CHEMBL5303304, “EUbOPEN Chemogenomics Library - IncuCyte” (2023):

Assays:
Format in all cases: toxicity, cell-based
[1] = system: U2OS; test: Incucyte cell viability with U2OS; conditions: human, 10 µM, compound concentration 10 uM
[2] = system: Fibroblast; test: Incucyte cell viability with human fibroblast; conditions: 10 µM, compound concentration 10 uM
[3] = system: HEK-293T; test: Incucyte cell viability with HEK293T; conditions: human, 10 µM, compound concentration 10 uM
Also: unitless GR value; below 1 slowed growth and below 0 cell loss.

Compound: COc1c(C(=O)/C=C/c2ccccc2)c(O)c(OC)c2occc12
- Growth Rate ([1]; 0 h, replicate number 1): -0.43
- Growth Rate ([1]; 0 h, replicate number 2): -0.14
- Growth Rate ([1]; 6 h, replicate number 1): 0.86
- Growth Rate ([1]; 6 h, replicate number 2): 0.76
- Growth Rate ([1]; 12 h, replicate number 1): 0.64
- Growth Rate ([1]; 12 h, replicate number 2): 0.6
- Growth Rate ([1]; 18 h, replicate number 1): 0.71
- Growth Rate ([1]; 18 h, replicate number 2): 0.55
- Growth Rate ([1]; 24 h, replicate number 1): 0.78
- Growth Rate ([1]; 24 h, replicate number 2): 0.83
- Growth Rate ([2]; 6 h, replicate number 2): -0.26
- Growth Rate ([2]; 12 h, replicate number 1): -0.31
- Growth Rate ([2]; 12 h, replicate number 2): 0.35
- Growth Rate ([2]; 18 h, replicate number 1): 0
- Growth Rate ([2]; 18 h, replicate number 2): 0.84
- Growth Rate ([2]; 24 h, replicate number 1): 0.86
- Growth Rate ([2]; 24 h, replicate number 2): 0.71
- Growth Rate ([3]; 6 h, replicate number 1): -0.45
- Growth Rate ([3]; 6 h, replicate number 2): -0.38
- Growth Rate ([3]; 12 h, replicate number 1): 0.27
- Growth Rate ([3]; 12 h, replicate number 2): 0.28
- Growth Rate ([3]; 18 h, replicate number 1): 0.86
- Growth Rate ([3]; 18 h, replicate number 2): 0.53
- Growth Rate ([3]; 24 h, replicate number 2): 0.75

Compound: CN1CC[C@@]23CCCC[C@@H]2[C@@H]1Cc1ccc(O)cc13.O=C(O)C(O)C(O)C(=O)O
- Growth Rate ([1]; 0 h, replicate number 2): -0.41
- Growth Rate ([2]; 0 h, replicate number 1): 0.67
- Growth Rate ([2]; 6 h, replicate number 2): -0.93
- Growth Rate ([2]; 12 h, replicate number 1): -0.94
- Growth Rate ([2]; 12 h, replicate number 2): -0.3
- Growth Rate ([2]; 18 h, replicate number 1): 0.72
- Growth Rate ([2]; 18 h, replicate number 2): 0.13
- Growth Rate ([2]; 24 h, replicate number 2): 0.19
- Growth Rate ([3]; 0 h, replicate number 1): 0.54
- Growth Rate ([3]; 0 h, replicate number 2): 0.37

Compound: Cc1cccc(-c2nn3c(c2-c2ccnc4ccc(C(N)=O)cc24)CCC3)n1 [GALUNISERTIB]
- Growth Rate ([1]; 0 h, replicate number 1): -0.43
- Growth Rate ([1]; 0 h, replicate number 2): 0.64
- Growth Rate ([1]; 6 h, replicate number 1): 0.57
- Growth Rate ([1]; 12 h, replicate number 1): 0.66
- Growth Rate ([1]; 12 h, replicate number 2): 0.83
- Growth Rate ([1]; 18 h, replicate number 1): 0.75
- Growth Rate ([1]; 18 h, replicate number 2): 0.87
- Growth Rate ([1]; 24 h, replicate number 1): 0.93
- Growth Rate ([1]; 24 h, replicate number 2): 0.76
- Growth Rate ([2]; 0 h, replicate number 2): -0.6
- Growth Rate ([3]; 0 h, replicate number 1): -0.5
- Growth Rate ([3]; 6 h, replicate number 2): 0.64
- Growth Rate ([3]; 12 h, replicate number 2): 0.74
- Growth Rate ([3]; 18 h, replicate number 2): 0.73
- Growth Rate ([3]; 24 h, replicate number 2): 0.8

Compound: Oc1cccc(Nc2ccnc3[nH]c4ccccc4c23)c1
- Growth Rate ([1]; 12 h, replicate number 2): 0.91
- Growth Rate ([1]; 18 h, replicate number 1): 0.69
- Growth Rate ([1]; 18 h, replicate number 2): 0.7
- Growth Rate ([1]; 24 h, replicate number 1): 0.73
- Growth Rate ([1]; 24 h, replicate number 2): 0.63
- Growth Rate ([2]; 0 h, replicate number 1): 0.68
- Growth Rate ([2]; 6 h, replicate number 1): -0.78
- Growth Rate ([2]; 6 h, replicate number 2): -0.81
- Growth Rate ([2]; 12 h, replicate number 1): -0.34
- Growth Rate ([2]; 12 h, replicate number 2): -0.25
- Growth Rate ([2]; 18 h, replicate number 2): 0.18
- Growth Rate ([2]; 24 h, replicate number 1): 0.48
- Growth Rate ([2]; 24 h, replicate number 2): 0.3
- Growth Rate ([3]; 6 h, replicate number 1): -0.94
- Growth Rate ([3]; 6 h, replicate number 2): -0.96
- Growth Rate ([3]; 12 h, replicate number 1): -0.75
- Growth Rate ([3]; 12 h, replicate number 2): -0.62
- Growth Rate ([3]; 18 h, replicate number 1): -0.41
- Growth Rate ([3]; 18 h, replicate number 2): -0.28
- Growth Rate ([3]; 24 h, replicate number 1): -0.06
- Growth Rate ([3]; 24 h, replicate number 2): 0

Compound: CSc1ccc(C(=O)/C=C/c2cc(C)c(OC(C)(C)C(=O)O)c(C)c2)cc1 [ELAFIBRANOR]
- Growth Rate ([1]; 0 h, replicate number 1): -0.15
- Growth Rate ([1]; 0 h, replicate number 2): 0.75
- Growth Rate ([1]; 6 h, replicate number 1): 0.88
- Growth Rate ([1]; 6 h, replicate number 2): 0.45
- Growth Rate ([1]; 12 h, replicate number 1): 0.63
- Growth Rate ([1]; 12 h, replicate number 2): 0.69
- Growth Rate ([1]; 18 h, replicate number 1): 0.88
- Growth Rate ([1]; 24 h, replicate number 1): 0.92
- Growth Rate ([1]; 24 h, replicate number 2): 0.76
- Growth Rate ([2]; 0 h, replicate number 1): 0.61
- Growth Rate ([2]; 0 h, replicate number 2): 0.85
- Growth Rate ([2]; 6 h, replicate number 2): 0.74
- Growth Rate ([2]; 12 h, replicate number 2): 0.59
- Growth Rate ([2]; 18 h, replicate number 1): 0.87
- Growth Rate ([2]; 18 h, replicate number 2): 0.9
- Growth Rate ([2]; 24 h, replicate number 2): 0.75
- Growth Rate ([3]; 0 h, replicate number 1): 0.18
- Growth Rate ([3]; 6 h, replicate number 2): 0.6
- Growth Rate ([3]; 12 h, replicate number 2): 0.79
- Growth Rate ([3]; 18 h, replicate number 2): 0.97
- Growth Rate ([3]; 24 h, replicate number 2): 0.99

Compound: CC(C)(C)S(=O)(=O)c1ccc2nccc(Nc3n[nH]c4ccc(F)cc34)c2c1
- Growth Rate ([1]; 0 h, replicate number 1): -0.83
- Growth Rate ([1]; 6 h, replicate number 1): 0.95
- Growth Rate ([1]; 6 h, replicate number 2): 0.2
- Growth Rate ([1]; 12 h, replicate number 1): 0.21
- Growth Rate ([1]; 12 h, replicate number 2): 0.12
- Growth Rate ([1]; 18 h, replicate number 1): 0.1
- Growth Rate ([1]; 18 h, replicate number 2): -0.02
- Growth Rate ([1]; 24 h, replicate number 1): 0.06
- Growth Rate ([1]; 24 h, replicate number 2): -0.07
- Growth Rate ([2]; 6 h, replicate number 2): 0.54
- Growth Rate ([2]; 12 h, replicate number 1): 0.85
- Growth Rate ([2]; 12 h, replicate number 2): 0.34
- Growth Rate ([2]; 18 h, replicate number 1): 0.67
- Growth Rate ([2]; 18 h, replicate number 2): 0.31
- Growth Rate ([2]; 24 h, replicate number 1): 0.45
- Growth Rate ([2]; 24 h, replicate number 2): 0.22
- Growth Rate ([3]; 6 h, replicate number 1): -0.03
- Growth Rate ([3]; 6 h, replicate number 2): -0.05
- Growth Rate ([3]; 12 h, replicate number 1): -0.18
- Growth Rate ([3]; 12 h, replicate number 2): -0.13
- Growth Rate ([3]; 18 h, replicate number 1): -0.12
- Growth Rate ([3]; 18 h, replicate number 2): -0.14
- Growth Rate ([3]; 24 h, replicate number 1): -0.13
- Growth Rate ([3]; 24 h, replicate number 2): -0.15

Compound: COc1ccc(CCCN2CCC(COC(c3ccccc3)c3ccccc3)CC2)cc1.Cl
- Growth Rate ([1]; 0 h, replicate number 1): 0.33
- Growth Rate ([2]; 6 h, replicate number 2): -1
- Growth Rate ([2]; 12 h, replicate number 1): -0.98
- Growth Rate ([2]; 12 h, replicate number 2): -0.74
- Growth Rate ([2]; 18 h, replicate number 1): -0.16
- Growth Rate ([2]; 18 h, replicate number 2): -0.39
- Growth Rate ([2]; 24 h, replicate number 1): 0.17
- Growth Rate ([2]; 24 h, replicate number 2): -0.23
- Growth Rate ([3]; 6 h, replicate number 1): -0.53
- Growth Rate ([3]; 6 h, replicate number 2): -0.09
- Growth Rate ([3]; 12 h, replicate number 1): -0.23
- Growth Rate ([3]; 12 h, replicate number 2): 0.28
- Growth Rate ([3]; 18 h, replicate number 1): -0.02
- Growth Rate ([3]; 18 h, replicate number 2): 0.26
- Growth Rate ([3]; 24 h, replicate number 1): 0.24
- Growth Rate ([3]; 24 h, replicate number 2): 0.31
